We go through three compounds from PMC10209615, “Pharmacological inhibition of LSD1 suppresses growth of hepatocellular carcinoma by inducing GADD45B” (MedComm, 2023).

In assay [1] the target is Truncated human LSD1 (residues 172–836) (Homo sapiens, UniProt O60341). As to the kind of experiment: Surface plasmon resonance (Biacore). The conditions noted are these: 25°C, read-out: dissociation constant (KD). It is filed as binding. For orientation: Surface plasmon resonance follows binding to a sensor surface in real time, without labels.
Procedure: Briefly, the truncated LSD1 was cloned into a pET28a plasmid and expressed in Escherichia coli BL21(DE3) at 18°C (Novagen). The fusion protein was purified by the nickel charged nitrilotriacetic acid (Ni‐NTA, GE Healthcare) with buffer A (20 mM Tris‐HCl, pH 8.5, 10 mM imidazole, 500 mM NaCl, and 2 mM dithiothreitol DTT) and buffer B (20 mM Tris‐HCl, Ph 8.5, 500 mM imidazole, 500 mM NaCl, and 2 mM DTT). Then, LSD1 was digested overnight with Thrombin Protease (Sigma Aldrich) to remove His‐tag and dialyzed against buffer C (20 mM Tris‐HCl, pH 8.5, 150 mM NaCl, and 2mM DTT) overnight at 4°C. The next day, the target protein was applied to Ni‐NTA again to remove the uncleaved His‐tag protein. LSD1 without His‐tag was further purified by an S200 16/600 column (GE Healthcare) in buffer C. The quality of purified LSD1 was checked by sodium dodecyl sulphate‐polyacrylamide gel electrophoresis (SDS‐PAGE).[47]
LSD1 protein was immobilized on a CM5 sensor chip by the amine‐coupling method. […] The binding kinetics was analyzed using BIAevaluation software (version 4.1, Biacore).
Another assay concerns PLC/PRF/5. As to the kind of experiment: Cell proliferation assay. It is filed as cell-based. The conditions noted are these: Homo sapiens; PLC/PRF/5, 144 h. The method, then: (§1) Cell viability was determined using Cell Counting Kit‐8 (CCK8; Dojindo) or 3‐(4, 5‐dimethylthiazol‐2‐yl)‐2,5‐diphenyltetrazoliumbromide (MTT, Sigma Aldrich) assay. A selection of HCC cells was exposed to gradient concentration of ZY0511 for 96–144 h, or exposed to other LSD1 inhibitors including SP2509, GSK2879552, and ORY1001 for 144 h, or exposed to DTP3, which enhanced the apoptosis induction function of GADD45B for 96 h in combination therapy. Consequently, cell viability was determined using a microplate reader (Thermo Fisher) at 450 nm for CCK8 assay, or 570 nm for MTT assay, at different time points. The IC50 values and CI values were analyzed and calculated using GraphPad Prism 8 and CompuSyn (version 1.0; http://www.combosyn.com), respectively.

In a further assay the test system is JHH7. Nature of the assay: Cell proliferation assay. Particulars: Homo sapiens, JHH7, 144 h. The class given is cell-based. The method, then: as §1
The next assay has as its system Hep3B. Nature of the assay: Cell proliferation assay. The class given is cell-based. Particulars: Homo sapiens, 144 h. The method, then: as §1
The subject of another assay is SK-Hep-1. Nature of the assay: Cell proliferation assay. The conditions noted are these: Homo sapiens, SK-HEP1; SK-Hep-1, 144 h. The class given is cell-based. The method, then:
as §1

Another assay relates to HepG2. As to the kind of experiment: Cell proliferation assay. The conditions noted are these: Homo sapiens, HepG2, 144 h. It is filed as cell-based. The method, then: as §1
The test system of a further assay is HCCLM3. As to the kind of experiment: Cell proliferation assay. The class given is cell-based. The conditions noted are these: Homo sapiens, HCCLM3, 144 h. The method, then: as §1
For another assay, the system named is HuH7. Nature of the assay: Cell proliferation assay. The class given is cell-based. The conditions noted are these: Homo sapiens, Huh-7; HuH7, 144 h. The method, then: as §1
A further assay relates to QGY7701. Nature of the assay: Cell proliferation assay. The conditions noted are these: Homo sapiens, QGY7701, 144 h. It is filed as cell-based. The method, then: as §1
The test system of another assay is HuH6. Nature of the assay: Cell proliferation assay. The class given is cell-based. The conditions noted are these: Homo sapiens, HuH-6; HuH6, 144 h. The method, then: as §1
The next assay concerns nine HCC cell lines. Nature of the assay: CCK‐8 cell proliferation assay. It is filed as cell-based. Particulars: Homo sapiens; post‐treatment for 144 h; read-out: half‐maximal inhibitory concentration (IC50), proliferation of HCC cell lines. The method, then: Cell viability was determined using Cell Counting Kit‐8 (CCK8; Dojindo) or 3‐(4, 5‐dimethylthiazol‐2‐yl)‐2,5‐diphenyltetrazoliumbromide (MTT, Sigma Aldrich) assay. […] Consequently, cell viability was determined using a microplate reader (Thermo Fisher) at 450 nm for CCK8 assay, or 570 nm for MTT assay, at different time points. The IC50 values and CI values were analyzed and calculated using GraphPad Prism 8 and CompuSyn (version 1.0; http://www.combosyn.com), respectively.

In the case of `C/C(=N\NC(=O)c1cccc(S(=O)(=O)N2CCOCC2)c1)c1cc(Cl)ccc1O` [SP2509], in assay [1], the Kd amounted to 0.0198 µM.
As to `O=C(O)c1ccc(CN2CCC(CN[C@@H]3C[C@H]3c3ccccc3)CC2)cc1` [GSK2879552], the IC50 with PLC/PRF/5, in the assay with JHH7, in the assay on Hep3B, with SK-Hep-1, in the assay with HepG2 and in the assay with HCCLM3 was over 100 µM in each case. The IC50 is over 100 µM in the assay on HuH7, over 100 µM in the assay on QGY7701, over 100 µM in the assay with HuH6 and at least 28.6 µM in the assay with nine HCC cell lines.
On to `N[C@H]1CC[C@H](N[C@@H]2C[C@H]2c2ccccc2)CC1` [ORY1001], for which the IC50 is over 100 µM in the assay with PLC/PRF/5; 56.2 ± 9.07 µM with JHH7; 28.6 ± 6.72 µM with Hep3B; 35.8 ± 5.05 µM in the assay on SK-Hep-1; over 100 µM in the assay on HepG2; over 100 µM with HCCLM3. Besides, the IC50 was over 100 µM in the assay on HuH7, over 100 µM with QGY7701, 46.3 ± 1.39 µM in the assay with HuH6 and at least 28.6 µM in the assay with nine HCC cell lines.

What is called Kd is the free concentration of one partner at which half of the binding sites on the other are occupied at equilibrium, for simple one-to-one binding.
